Source: patent US20200131132A1, “FARNESOID X RECEPTOR AGONISTS AND USES THEREOF” (Metacrine, Inc., priority 2017, published 2020)

biological target: T1, hFXR (Homo sapiens, UniProt Q96RI1); experiment: In Vitro FXR Assay (TK); type: cell-based; conditions: CV-1 cells transfected with hFXR, hRXR, TK-ECRE-luc and pCMX-YFP; compounds incubated 18 hrs; luminescence
T1 construct: expressed in transfected cells; host or cells: CV-1 cells
T1 sequence (Q96RI1 1-486): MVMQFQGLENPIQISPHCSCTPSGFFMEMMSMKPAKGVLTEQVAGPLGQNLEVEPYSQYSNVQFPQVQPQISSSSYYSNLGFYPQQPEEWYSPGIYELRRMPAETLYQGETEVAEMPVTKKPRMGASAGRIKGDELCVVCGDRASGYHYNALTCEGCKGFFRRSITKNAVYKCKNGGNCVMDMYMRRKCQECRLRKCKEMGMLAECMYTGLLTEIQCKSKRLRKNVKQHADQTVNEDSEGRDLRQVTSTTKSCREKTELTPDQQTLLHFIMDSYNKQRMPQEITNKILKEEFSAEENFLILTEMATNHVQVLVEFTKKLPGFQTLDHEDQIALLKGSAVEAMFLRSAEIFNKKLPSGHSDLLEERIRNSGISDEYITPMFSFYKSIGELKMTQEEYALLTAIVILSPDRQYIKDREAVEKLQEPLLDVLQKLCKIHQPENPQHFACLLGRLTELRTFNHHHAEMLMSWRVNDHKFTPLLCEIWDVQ
T1 sequence (P19793 1-462 partner): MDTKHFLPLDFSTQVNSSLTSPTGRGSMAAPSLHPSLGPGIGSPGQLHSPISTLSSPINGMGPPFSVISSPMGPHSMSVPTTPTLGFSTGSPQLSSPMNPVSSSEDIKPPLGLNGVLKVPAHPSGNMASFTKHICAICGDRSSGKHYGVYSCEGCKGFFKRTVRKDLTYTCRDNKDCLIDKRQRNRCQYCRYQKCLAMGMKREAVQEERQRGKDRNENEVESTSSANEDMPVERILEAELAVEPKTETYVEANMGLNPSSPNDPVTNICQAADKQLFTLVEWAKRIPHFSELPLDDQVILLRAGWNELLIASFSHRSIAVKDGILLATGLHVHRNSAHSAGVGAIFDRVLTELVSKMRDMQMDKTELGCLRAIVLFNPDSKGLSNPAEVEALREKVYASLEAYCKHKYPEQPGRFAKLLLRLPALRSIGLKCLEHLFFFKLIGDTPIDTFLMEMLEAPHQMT
Description: CV-1 cells were seeded at a density of 2,000,000 cells in a T175 flask with DMEM+10% charcoal double-stripped FBS and incubated at 37° C. in 5% CO2 for 18 h (O/N).
After 18 h of incubation, the medium in the T175 flask was changed with fresh DMEM+10% charcoal super-stripped serum. In a polypropylene tube, 2500 μL OptiMEM (Life Technologies, Cat #31985-062) was combined with expression plasmids for hFXR, hRXR, TK-ECRE-luc and pCMX-YFP. The tube was then briefly vortexed and incubated at room temperature for 5 minutes. Transfection reagent (X-tremeGENE HP from Roche, Cat #06 366 236 001) was added to the OptiMEM/plasmid mixture vortexed and incubated at room temperature for 20 minutes. Following incubation, the transfection reagent/DNA mixture complex was added to cells in the T175 flask and the cells were incubated at 37° C. in 5% CO2 for 18 h (O/N).
Compounds were serially diluted in DMSO and added to transfected CV-1 cells. The cells were then incubated for 18 hrs. The next day cells were lysed and examined for luminescence.

Q: `COc1ccc(-c2ccc(CN(C(=O)CC(C)(C)C)c3nccc4cc(-c5nccs5)ccc34)cc2)cc1C` [Compound 14.01, N-((4′-Methoxy-3′-methyl-[1,1′-biphenyl]-4-yl)methyl)-3,3-dimethyl-N-(6-(thiazol-2-yl)isoquinolin-1-yl)butanamide] was tested. Which EC50 did it give?
A: ≤ 1000 nM

Q: With `COc1ccc(-c2ccc(CN(C(=O)CC(C)(C)C)c3nccc4cc(OC5COC5)ccc34)cc2)cc1C` [Compound 8.09, N-((4′-Methoxy-3′-methyl-[1,1′-biphenyl]-4-yl)methyl)-3,3-dimethyl-N-(6-(oxetan-3-yloxy)isoquinolin-1-yl)butanamide] as the molecule, how does the EC50 read?
A: ≤ 1000 nM

Q: For `COc1ccc(-c2ccc(CN(C(=O)CC(C)(C)C)c3nccc4cc(CCCO)ccc34)cc2)cc1C` [Compound 24, N-(6-(3-Hydroxypropyl)isoquinolin-1-yl)-N-((4′-methoxy-3′-methyl-[1,1′-biphenyl]-4-yl)methyl)-3,3-dimethylbutanamide], which EC50 is on record?
A: ≤ 1000 nM

Q: For `COc1ccc(-c2ccc(CN(C(=O)CC(C)(C)C)c3nccc4cnccc34)cc2)cc1C` [Compound 5.03, N-((4′-Methoxy-3′-methyl-[1,1′-biphenyl]-4-yl)methyl)-3,3-dimethyl-N-(2,6-naphthyridin-1-yl)butanamide], which EC50 is on record?
A: 1000 to 10000 nM

Q: How did the EC50 turn out when `COc1ccc(-c2ccc(CN(C(=O)CC(C)(C)C)c3nccc4cc(OCCO)ccc34)cc2)cc1C` [Compound 8.11, N-(6-(2-Hydroxyethoxy)isoquinolin-1-yl)-N-((4′-methoxy-3′-methyl-[1,1′-biphenyl]-4-yl)methyl)-3,3-dimethylbutanamide] was run?
A: ≤ 1000 nM

Q: Which EC50 does the source give for `COc1ccc(-c2ccc(CN(C(=O)CC(C)(C)C)c3nccc4cc(-c5ncco5)ccc34)cc2)cc1C` [Compound 14, N-((4′-Methoxy-3′-methyl-[1,1′-biphenyl]-4-yl)methyl)-3,3-dimethyl-N-(6-(oxazol-2-yl)isoquinolin-1-yl)butanamide] here?
A: ≤ 1000 nM

Q: How did the EC50 turn out when `COc1ccc(-c2ccc(CN(C(=O)CC(C)(C)C)c3nccc4cc(COCC(=O)N(C)C)ccc34)cc2)cc1C` [Compound 19.02, N-(6-((2-(Dimethylamino)-2-oxoethoxy)methyl)isoquinolin-1-yl)-N-((4′-methoxy-3′-methyl-[1,1′-biphenyl]-4-yl)methyl)-3,3-dimethylbutanamide] was run?
A: 1000 to 10000 nM

Q: With `COc1ccc(-c2ccc(CN(C(=O)CC(C)(C)C)c3nccc4cc(OCC(N)=O)ccc34)cc2)cc1C` [Compound 8.03, N-(6-(2-Amino-2-oxoethoxy)isoquinolin-1-yl)-N-((4′-methoxy-3′-methyl-[1,1′-biphenyl]-4-yl)methyl)-3,3-dimethylbutanamide] as the molecule, how does the EC50 read?
A: ≤ 1000 nM

Q: Which EC50 does the source give for `COCCCOc1ccc2c(N(Cc3ccc(-c4ccc(OC)c(C)c4)cc3)C(=O)CC(C)(C)C)nccc2c1` [Compound 8.08, N-((4′-Methoxy-3′-methyl-[1,1′-biphenyl]-4-yl)methyl)-N-(6-(3-methoxypropoxy)isoquinolin-1-yl)-3,3-dimethylbutanamide] here?
A: ≤ 1000 nM

Q: For `COc1ccc2ccnc(N(Cc3ccc(-c4ccc(OC)c(C)c4)cc3)C(=O)CC(C)(C)C)c2c1` [Compound 11.03, N-((4′-Methoxy-3′-methyl-[1,1′-biphenyl]-4-yl)methyl)-N-(7-methoxyisoquinolin-1-yl)-3,3-dimethylbutanamide], which EC50 is on record?
A: ≤ 1000 nM

Q: Which EC50 does the source give for `COc1ccc(-c2ccc(CN(C(=O)CC(C)(C)C)c3nccc4cc(C(C)(C)O)ccc34)cc2)cc1C` [Compound 17, N-(6-(2-Hydroxypropan-2-yl)isoquinolin-1-yl)-N-((4′-methoxy-3′-methyl-[1,1′-biphenyl]-4-yl)methyl)-3,3-dimethylbutanamide] here?
A: ≤ 1000 nM

Q: With `COc1ccc(-c2ccc(CN(C(C)=O)c3nccc4cc(C(C)(C)O)ccc34)cc2)cc1C` [Compound 18, N-(6-(2-Hydroxypropan-2-yl)isoquinolin-1-yl)-N-((4′-methoxy-3′-methyl-[1,1′-biphenyl]-4-yl)methyl)acetamide] as the molecule, how does the EC50 read?
A: > 10000 nM

Q: For `COc1ccc(-c2ccc(CN(C(=O)CC(C)(C)C)c3nccc4cc(N5CCC(O)CC5)ccc34)cc2)cc1C` [Compound 6.18, N-(6-(4-Hydroxypiperidin-1-yl)isoquinolin-1-yl)-N-((4′-methoxy-3′-methyl-[1,1′-biphenyl]-4-yl)methyl)-3,3-dimethylbutanamide], which EC50 is on record?
A: ≤ 1000 nM

Q: With `COc1ccc2c(N(Cc3ccc(-c4ccc(OC)c(C)c4)cc3)C(=O)CC(C)(C)C)nccc2c1` [Compound 4.02, N-((4′-Methoxy-3′-methyl-[1,1′-biphenyl]-4-yl)methyl)-N-(6-methoxyisoquinolin-1-yl)-3,3-dimethylbutanamide] as the molecule, how does the EC50 read?
A: ≤ 1000 nM

Q: `COc1ccc(-c2ccc(CN(C(=O)CC(C)(C)C)c3nccc4ccncc34)cc2)cc1C` [Compound 5.04, N-((4′-Methoxy-3′-methyl-[1,1′-biphenyl]-4-yl)methyl)-3,3-dimethyl-N-(2,7-naphthyridin-1-yl)butanamide] was tested. Which EC50 did it give?
A: 1000 to 10000 nM

Q: `COC(=O)c1cc(CN(C(=O)CC(C)(C)C)c2nccc3cc(OC)ccc23)ccc1-c1ccc(OC)c(C)c1` [Compound 20.02, Methyl 4′-methoxy-4-((N-(6-methoxyisoquinolin-1-yl)-3,3-dimethylbutanamido)methyl)-3′-methyl-[1,1′-biphenyl]-2-carboxylate] was tested. Which EC50 did it give?
A: ≤ 1000 nM

Q: `COCCOc1ccc2c(N(Cc3ccc(-c4ccc(OC)c(C)c4)cc3)C(=O)CC(C)(C)C)nccc2c1` [Compound 9, N-((4′-Methoxy-3′-methyl-[1,1′-biphenyl]-4-yl)methyl)-N-(6-(2-methoxyethoxy)isoquinolin-1-yl)-3,3-dimethylbutanamide] was tested. Which EC50 did it give?
A: ≤ 1000 nM

Q: How did the EC50 turn out when `COc1ccc(-c2ccc(CN(C(=O)CC(C)(C)C)c3nccc4cc(C)ccc34)cc2)cc1C` [Compound 12, N-((4′-Methoxy-3′-methyl-[1,1′-biphenyl]-4-yl)methyl)-3,3-dimethyl-N-(6-methylisoquinolin-1-yl)butanamide] was run?
A: ≤ 1000 nM

Q: How did the EC50 turn out when `COCc1ccc2c(N(Cc3ccc(-c4ccc(OC)c(C)c4)cc3)C(=O)CC(C)(C)C)nccc2c1` [Compound 9.03, N-((4′-Methoxy-3′-methyl-[1,1′-biphenyl]-4-yl)methyl)-N-(6-(methoxymethyl)isoquinolin-1-yl)-3,3-dimethylbutanamide] was run?
A: ≤ 1000 nM

Q: Which EC50 does the source give for `COc1ccc(-c2ccc(CN(C(=O)CC(C)(C)C)c3nccc4cc(COCCO)ccc34)cc2)cc1C` [Compound 2.02, N-(6-((2-Hydroxyethoxy)methyl)isoquinolin-1-yl)-N-((4′-methoxy-3′-methyl-[1,1′-biphenyl]-4-yl)methyl)-3,3-dimethylbutanamide] here?
A: ≤ 1000 nM

Q: With `COC(=O)Nc1ccc2c(N(Cc3ccc(-c4ccc(OC)c(C)c4)cc3)C(=O)CC(C)(C)C)nccc2c1` [Compound 6.21, Methyl (l-(N-((4′-methoxy-3′-methyl-[1,1′-biphenyl]-4-yl)methyl)-3,3-dimethylbutanamido)isoquinolin-6-yl)carbamate] as the molecule, how does the EC50 read?
A: ≤ 1000 nM

Q: How did the EC50 turn out when `COc1ccc(-c2ccc(CN(C(=O)CC(C)(C)C)c3nccc4c(Br)cccc34)cc2)cc1C` [Compound 4.07, N-(5-Bromoisoquinolin-1-yl)-N-((4′-methoxy-3′-methyl-[1,1′-biphenyl]-4-yl)methyl)-3,3-dimethylbutanamide] was run?
A: > 10000 nM

Q: For `COC(=O)c1cc(-c2ccc(OC)c(C)c2)ccc1CN(C(=O)CC(C)(C)C)c1nccc2cc(OC)ccc12` [Compound 20.01, Methyl 4′-methoxy-4-((N-(6-methoxyisoquinolin-1-yl)-3,3-dimethylbutanamido)methyl)-3′-methyl-[1,1′-biphenyl]-3-carboxylate], which EC50 is on record?
A: > 10000 nM

Q: With `CCCOc1ccc2c(N(Cc3ccc(-c4ccc(OC)c(C)c4)cc3)C(=O)CC(C)(C)C)nccc2c1` [Compound 11.02, N-((4′-Methoxy-3′-methyl-[1,1′-biphenyl]-4-yl)methyl)-3,3-dimethyl-N-(6-propoxyisoquinolin-1-yl)butanamide] as the molecule, how does the EC50 read?
A: ≤ 1000 nM
